Residue numbers refer to the chain shown, from its start. Entries after “also recorded” stand apart in the source; their conditions may differ.
Legend:
S1R [1] = biological target: T1, S1R (Rattus norvegicus, UniProt Q9R0C9); assay: [^125I]-IAF photolabeling of the S1R in PC12 membranes; format: binding; settings: 20 μM
T1 construct: endogenous in cells; host or cells: PC12 cells
Method: (§1) Cell membrane preparation was performed following our established method ([Guo et al., 2012]). Briefly, cell pellets were suspended in PBS and sonicated on ice using the following settings: 5 sets (10 strokes/set) at duty cycle = 50, output control = 5. Cell homogenates were centrifuged at 8000 × g for 10 min, and the resulting supernatant was collected and subjected to ultracentrifugation at 100,000 × g for 1 h. The supernatant was discarded and the pellet was gently washed twice with ice-cold PBS. The pellet was then resuspended in PBS and sonicated (3 sets, 10 strokes/set at duty cycle = 50, output control = 5) to homogeneity. Protein concentration was then measured using the standard Bradford reagent (Sigma-Aldrich, St. Louis, MO).
(§2) The synthesis of [^125I]-IAF and photolabeling was performed according to our published method ([Pal et al., 2007]). […] [^125I]-IAF was then added (final 1 nM) and incubated for another 40 min with gentle shaking in the dark. Photoactivation of [^125I]-IAF was performed by exposing the samples to a high-pressure AH-6 mercury lamp for 5 s and Laemmli buffer was immediately added to each sample. The samples were then resolved on a 16 × 18 cm SDS gel with 6–18% acrylamide gradient. The gel was dried and exposed to a phosphor screen for 24–48 h and autoradiograms were recorded using a Phosphoimager (Molecular Dynamics).

PGRMC1 [2] = system: PGRMC1; parameters: method as in Xu et al., 2011; settings: ref Xu et al., 2011, cited from earlier work
S2R [3] = biological target: T2, S2R (Mus musculus, UniProt Q8VD00); parameters: method as in Pal et al., 2007; settings: earlier work of the group; ref Pal et al., 2007; cited from earlier work
T2 construct: Membranes (28 μg total proteins per reaction) prepared from NSC34 cells of controls, PGRMC1 knockout, or PGRMC1-3 × HA overexpression; endogenous in cells; host or cells: NSC34 cells (control, PGRMC1 knockout clones 38 and 207, PGRMC1-3xHA overexpressing)
T2 sequence (Q8VD00 1-176): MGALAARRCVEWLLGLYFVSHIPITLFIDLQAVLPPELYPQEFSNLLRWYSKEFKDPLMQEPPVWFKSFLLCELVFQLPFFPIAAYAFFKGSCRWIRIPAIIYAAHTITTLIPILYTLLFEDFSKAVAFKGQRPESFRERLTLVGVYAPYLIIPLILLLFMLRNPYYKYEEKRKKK

S2R [4] = biological target: T2, S2R; settings: cited from earlier work
S1R [5] = biological target: T3, S1R (Mus musculus, UniProt O55242); settings: cited from earlier work; for affinity for the S1R: ref Hellewell et al., 1994
T3 construct: membranes prepared from control and PGRMC1 knockout (clones 38 and 207) NSC34 cells; endogenous in cells; host or cells: NSC34 cells (control and PGRMC1 knockout clones 38 and 207)

S1R [6] = biological target: T3, S1R; assay: [^125I]-IAF photolabeling of the S1R in NSC34 cell membranes; format: binding; settings: NSC34 membranes (control and PGRMC1 knockout)
Method: as §1, §2

S2R [7] = biological target: T4, S2R (Rattus norvegicus, UniProt Q5U3Y7); assay: [^125I]-IAF photolabeling of the S2R in PC12 membranes; format: binding
T4 construct: [^125I]-IAF photolabeling of the S2R in PC12 membranes; endogenous in cells; host or cells: PC12 cells
T4 sequence (Q5U3Y7 1-176): T2 sequence (Q8VD00 1-176) with L4V, A5T, L26M, V33L, L71F, A105V, L118I, V127I, S136N, Y169F
Method: as §1, §2

S2R [8] = biological target: T2, S2R; assay: [^125I]-IAF photolabeling of the S2R in NSC34 cell membranes; format: binding; settings: NSC34 membranes (control and PGRMC1 knockout); 20 μM
Method: as §1, §2

PGRMC1 [9] = biological target: PGRMC1 (Rattus norvegicus, UniProt P70580); assay: biochemical
Method: Liver tissues were homogenized (10 ml buffer/g wet tissue) by 4 bursts of 10 s each using a Brinkman polytron (American Laboratory Trading Inc., East Lyme, CT) on setting 6 in ice-cold sodium phosphate buffer (10 mM pH 7.4) containing 0.32 M sucrose and a cocktail of protease inhibitors (20 μg/ml leupeptin, 5 μg/ml soybean trypsin inhibitor, 100 μM phenylmethylsulfonyl fluoride (PMSF), 100 μM benzamidine and 1 mM EDTA). The membrane suspension after homogenization was centrifuged for 10 min at 17,000 × g and the supernatant was subjected to ultracentrifugation at 100,000 × g for 1 h to collect membrane fractions. The pellet from the second centrifugation was resuspended to a protein concentration of 10 mg/ml in the foregoing buffer, snapped frozen and stored at − 80 °C.
Inhibition of [^3H]-progesterone binding to PGRMC1 was performed according to [Peluso et al. (2008)]. […] After incubation at 37 °C for 60 min, the reaction was terminated by rapid filtration through glass fiber filters, using a Brandel cell harvester and processed as described above. […] Nonspecific binding was monitored in the presence of nonradioactive progesterone at 10 μM and subtracted from total [^3H]-progesterone binding.

PGRMC1 [10] = settings: ref Peluso et al., 2008; cited from earlier work
S2R (sigma-2 receptor) = biological target: T5, S2R (sigma-2 receptor) (Rattus norvegicus, UniProt Q5U3Y7); assay: Inhibition of [^3H]-DTG binding to the S2R in rat liver membranes
T5 construct: Experiments were performed with rat liver membranes; tissue Pel Freez Biologicals; host or cells: rat liver
T5 sequence (Q5U3Y7 1-176): T2 sequence (Q8VD00 1-176) with L4V, A5T, L26M, V33L, L71F, A105V, L118I, V127I, S136N, Y169F
Method: Rat liver membranes, a rich source of sigma-2 receptor, were prepared as described in our previous reports ([Pal et al., 2007], [Guo et al., 2012]) from frozen tissues (Pel Freez Biologicals, Rogers, AR). Liver tissues were homogenized (10 ml buffer/g wet tissue) by 4 bursts of 10 s each using a Brinkman polytron (American Laboratory Trading Inc., East Lyme, CT) on setting 6 in ice-cold sodium phosphate buffer (10 mM pH 7.4) containing 0.32 M sucrose and a cocktail of protease inhibitors (20 μg/ml leupeptin, 5 μg/ml soybean trypsin inhibitor, 100 μM phenylmethylsulfonyl fluoride (PMSF), 100 μM benzamidine and 1 mM EDTA). The membrane suspension after homogenization was centrifuged for 10 min at 17,000 × g and the supernatant was subjected to ultracentrifugation at 100,000 × g for 1 h to collect membrane fractions. The pellet from the second centrifugation was resuspended to a protein concentration of 10 mg/ml in the foregoing buffer, snapped frozen and stored at − 80 °C.

S2R [11] = biological target: T2, S2R; parameters: method as in Matsumoto et al., 2014; settings: competitive [^3H]-DTG binding assays; ref Matsumoto et al., 2014; cited from earlier work
S1R [12] = biological target: T3, S1R; parameters: method as in Matsumoto et al., 2014; settings: competitive [^3H]-DTG binding assays; ref Matsumoto et al., 2014; cited from earlier work
S2R [13] = biological target: T2, S2R; assay: Saturation binding of [^3H]-DTG in NSC34 cell membranes, S1R masked with (+)-pentazocine; settings: mean ± SEM
Method: as §1

T3 sequence (O55242 whole entry): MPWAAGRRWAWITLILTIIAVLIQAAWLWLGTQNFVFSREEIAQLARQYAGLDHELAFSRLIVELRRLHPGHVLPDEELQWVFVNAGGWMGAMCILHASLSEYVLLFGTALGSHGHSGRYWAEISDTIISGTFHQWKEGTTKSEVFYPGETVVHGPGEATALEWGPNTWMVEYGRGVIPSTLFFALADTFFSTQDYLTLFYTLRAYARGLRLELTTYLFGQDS
T1 sequence (Q9R0C9 whole entry): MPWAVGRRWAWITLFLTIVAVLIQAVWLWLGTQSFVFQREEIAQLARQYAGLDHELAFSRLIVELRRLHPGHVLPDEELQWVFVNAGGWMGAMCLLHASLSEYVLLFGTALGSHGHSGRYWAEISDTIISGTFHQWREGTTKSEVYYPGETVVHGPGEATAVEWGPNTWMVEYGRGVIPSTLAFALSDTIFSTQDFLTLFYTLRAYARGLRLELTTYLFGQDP
Sequence of PGRMC1 (Rattus norvegicus, UniProt P70580) (P70580 whole entry): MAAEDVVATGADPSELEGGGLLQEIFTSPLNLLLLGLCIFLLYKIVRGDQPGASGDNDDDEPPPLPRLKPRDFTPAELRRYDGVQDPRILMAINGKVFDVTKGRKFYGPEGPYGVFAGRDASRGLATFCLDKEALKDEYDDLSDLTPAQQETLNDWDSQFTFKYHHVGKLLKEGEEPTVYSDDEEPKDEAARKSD

SMILES: Cc1ccccc1NC(=N)Nc1ccccc1C [DTG, 1,3-di-o-tolylguanidine]
- protection of [^125I]-IAF photolabeling of the S1R (S1R [1]): protected
- protection of photolabeling of PGRMC1 (with WC-21) (PGRMC1 [2]; 1 μM): protected the photolabeling of PGRMC1
- protection of the [^125I]-IAF photolabeled S2R band (S2R [3]): protected
- affinity for the S2R (S2R [4]; ref Hellewell et al., 1994): ~ 50 nM
- Kd (S1R [5]; read-out: KD for DTG at the S1R, depending on sources of membranes and assay methods, ref Weber et al., 1986, Quirion et al., 1992, Itzhak and Kassim, 1990, Itzhak, 1987): 0.02 to 0.08 µM
- affinity for the S1R (S1R [5]): ~ 50 nM
- protection of [^125I]-IAF photolabeling of the S1R (26 kDa band) (S1R [6]; 20 μM): protected against photolabeling of both the S1R and the S2R
- protection of [^125I]-IAF photolabeling of the S2R (S2R [7]; 20 μM): protected
- protection of [^125I]-IAF photolabeling of the S2R (~18 kDa band) (S2R [8]): protected against photolabeling of both the S1R and the S2R
- Ki (PGRMC1 [9]): 472 µM

SMILES: CC(=O)[C@H]1CC[C@H]2[C@@H]3CCC4=CC(=O)CC[C@]4(C)[C@H]3CC[C@]12C [progesterone]
- Kd (PGRMC1 [10]): 0.035 µM
- Ki (S2R (sigma-2 receptor)): 14.2 ± 4.9 µM

SMILES: COc1cc2c(cc1OC)CN(CCCCn1c(=O)n(C)c3ccccc31)CC2 [CM398]
- protection of [^125I]-IAF photolabeling of the S2R (S2R [7]; 1 and 10 μM): selectively blocked the labeling of the S2R
- Ki (S2R [11]): 0.00043 µM
- Ki (S1R [12]): 0.56 µM

SMILES: Cc1ccccc1NC(=N)Nc1ccccc1C [[^3H]-DTG, [^3H]-1,3-Di-tolylguanidine]
- Bmax (S2R [13]; Control NSC34 cells (expression vector without PGRMC1 gene)): 2.35 ± 0.5 pmol/mg
- Bmax (S2R [13]; PGRMC1-HA overexpressing NSC34 cells): 2.5 ± 0.08 pmol/mg

SMILES: O=c1oc2cc(N=C=S)ccc2n1CCCCN1CCN(c2ccc(F)cc2)CC1 [CM572]
- type of S2R ligand (S2R [4]; ref Nicholson et al., 2015): irreversible selective affinity label for the S2R

SMILES: CC(C)=CCN1CC[C@]2(C)c3cc(O)ccc3C[C@H]1[C@H]2C [(+)-pentazocine]
- ligand for PGRMC1 (PGRMC1 [2]): not a ligand for PGRMC1
- affinity for the S1R (S1R [5]): < 10 nM
- protection of [^125I]-IAF photolabeling of the S1R (26 kDa band) (S1R [6]; 5 μM): protected against [^125I]-IAF photolabeling of the S1R; also recorded: readily protected

SMILES: CC(=O)[C@H]1CC[C@H]2[C@@H]3CCC4=CC(=O)CC[C@]4(C)[C@H]3CC[C@]12C [[^3H]-progesterone]
- Kd (PGRMC1 [10]): 0.035 µM
